Results published in patent EP0425840A2, “Use of methenamine in the treatment of viral diseases and malign neoplasies” (Jaeger, Karl-Heinz, Dr. med., priority 1989, dated 1991).
Read-outs that look alike come from different tables or passages of the source.

Legend:
[1] = system: L 5178 Y Maus-Lyphom Zellen; assay: Nucleus size after cell lysis and propidium iodide staining (impulse cytophotometer); type: cell-based
Source text: (§1) HMT wurde zu den Kulturen in verschiedenen Konzentrationen während einer Zeitspanne von 24 Std. zugegeben. Die Populationen und das Zellvolumen wurden mit einem Zytokombgerät (System Michaelis, Mainz) entsprechend dem Coulter Counter-Prinzip bestimmt. Nach der Zellolyse mit 35 mmol/l Natriumzitrat und 0,5% Triton X 100 (Herstellerin Sigma Chemie, München), RNAse Behandlung und […] mit Propidiumjodid wurde die Kerngröße mit Hilfe eines Impulszytofotometers (FACS analizer) Firma Becton and Dickinson) gemessen.
Die Zellkulturen wurden wie unter Beispiel 1 beschrieben behandelt. Bei der Bewertung der Nucleusgröße wurde als Kontrolle die Verteilung der Kerngröße bei unbehandelten Zellen zugrunde gelegt.

[2] = system: DNA-Polymerasen; assay: Activity of DNA polymerases in the cell nucleus; type: cell-based; details: no method or concentration given
[3] = system: L 5178 Y Maus-Lyphom Zellen; assay: Inhibition of cell growth in L 5178 Y cell culture (Coulter counter principle); type: cell-based
Source text: as §1, with “Die L 5178 Y Maus-Lyphom Zellen wurden in einem MEM-Spinner Medium mit 10 mmol/l HEPES Puffer, 10% fötalem Kalbserum und 100.000 Einheiten/l Penicillin/Steptomycin (Herstellerin Biocrom, Berlin) kultiviert. Bei Kultivierungsstart lagen 100.000 Zellen/ml Kulturmedium vor, wobei sich 60% der Zellen in der S-Phase befanden. HMT” for “HMT”

[4] = cited from earlier work
[5] = system: L 5178 Y Maus-Lyphom Zellen; assay: Change of cell volume in L 5178 Y cell culture (Coulter counter principle); type: cell-based
Source text: as §1, with “Die L 5178 Y Maus-Lyphom Zellen wurden in einem MEM-Spinner Medium mit 10 mmol/l HEPES Puffer, 10% fötalem Kalbserum und 100.000 Einheiten/l Penicillin/Steptomycin (Herstellerin Biocrom, Berlin) kultiviert. Bei Kultivierungsstart lagen 100.000 Zellen/ml Kulturmedium vor, wobei sich 60% der Zellen in der S-Phase befanden. HMT” for “HMT”

[6] = system: reversen Transkriptase; assay: Activity of reverse transcriptase in the cell nucleus; type: cell-based; details: no method or concentration given

Compound: N.N.[Cl][Pt][Cl] [Cisplatin]
- Anzahl der Kerne mit reduzierter Nucleusgröße (%) ([1]; Cisplatin 0,5 x 10⁻⁵ g/ml Kulturvolumen): 43,51±5,62%
- Anzahl der Kerne mit reduzierter Nucleusgröße (%) ([1]; Cisplatin 0,5 x 10⁻⁶ g/ml Kulturvolumen): 6,97±2,81%
- Anzahl der Kerne mit reduzierter Nucleusgröße (%) ([1]; Cisplatin 1,0 x 10⁻⁶ g/ml Kulturvolumen): 9,95±3,13%
- Anzahl der Kerne mit reduzierter Nucleusgröße (%) ([1]; Cisplatin 1,0 x 10⁻⁷ g/ml Kulturvolumen): 4,07±2,24%
- Anzahl der Kerne mit reduzierter Nucleusgröße (%) ([1]; Cisplatin 2,0 x 10⁻⁶ g/ml Kulturvolumen): 18,62±4,08%

Compound: C1N2CN3CN1CN(C2)C3 [HMT, Methenamine]
- Aktivitäten der DNA-Polymerasen im Zellkern [2]: beeinträchtigt
- activity at 100 µg/mL ([3]; Mus musculus, L5178Y, 24 h, 0,1 mg HMT/ml Kulturvolumen, 24 Std., Kontrolle = 100, read-out: Zellwachstum (%)): 8%
- activity at 20 µg/mL ([3]; Mus musculus, L5178Y, 24 h, 0,02 mg HMT/ml Kulturvolumen, 24 Std., Kontrolle = 100, read-out: Zellwachstum (%)): 61%
- activity at 200 µg/mL ([3]; Mus musculus, L5178Y, 24 h, 0,2 mg HMT/ml Kulturvolumen, 24 Std., Kontrolle = 100, read-out: Zellwachstum (%)): 6%
- activity at 50 µg/mL ([3]; Mus musculus, L5178Y, 24 h, 0,05 mg HMT/ml Kulturvolumen, 24 Std., Kontrolle = 100, read-out: Zellwachstum (%)): 35%
- Zellwachstum ([3]; from a concentration of 1 x 10⁻³ mg/ml HMT downwards): nicht mehr statistisch signifikant beeinflußt
- Anzahl der Kerne mit reduzierter Nucleusgröße (%) ([1]; 0,1 mg HMT/ml Kulturvolumen, kernfragmente): 79,9 (kernfragmente) %
- Anzahl der Kerne mit reduzierter Nucleusgröße (%) ([1]; 0,02 mg HMT/ml Kulturvolumen, Kernfragmente): 1,0 (Kernfragmente) %
- Anzahl der Kerne mit reduzierter Nucleusgröße (%) ([1]; 0,2 mg HMT/ml Kulturvolumen, Kernfragmente): 81,3 (Kernfragmente) %
- Anzahl der Kerne mit reduzierter Nucleusgröße (%) ([1]; 0,05 mg HMT/ml Kulturvolumen, Kernfragmente): 25,1 (Kernfragmente) %
- Anzahl der Kerne mit reduzierter Nucleusgröße (%) ([1]; 2 x 10⁻² mg HMT/ml Kulturvolumen): 6,05+2,07%
- Anzahl der Kerne mit reduzierter Nucleusgröße (%) ([1]; 2 x 10⁻³ mg HMT/ml Kulturvolumen): 19,62±3,89%
- Anzahl der Kerne mit reduzierter Nucleusgröße (%) ([1]; 2 x 10⁻¹² mg HMT/ml Kulturvolumen): 25,77±4,29%
- Anzahl der Kerne mit reduzierter Nucleusgröße (%) ([1]; 2 x 10⁻¹¹ mg HMT/ml Kulturvolumen): 27,17±4,13%
- Anzahl der Kerne mit reduzierter Nucleusgröße (%) ([1]; 2 x 10⁻⁴ mg HMT/ml Kulturvolumen): 13,41±3,71%
- Anzahl der Kerne mit reduzierter Nucleusgröße (%) ([1]; 2 x 10⁻⁵ mg HMT/ml Kulturvolumen): 11,14±3,60%
- Anzahl der Kerne mit reduzierter Nucleusgröße (%) ([1]; 2 x 10⁻⁶ mg HMT/ml Kulturvolumen): 4,50±2,92%
- Anzahl der Kerne mit reduzierter Nucleusgröße (%) ([1]; 2 x 10⁻⁷ mg HMT/ml Kulturvolumen): 1,11±0,58%
- Anzahl der Kerne mit reduzierter Nucleusgröße (%) ([1]; 2 x 10⁻⁸ mg HMT/ml Kulturvolumen): 20,86±4,07%
- Anzahl der Kerne mit reduzierter Nucleusgröße (%) ([1]; 5 x 10⁻² mg HMT/ml Kulturvolumen): 4,87±91,93%
- Kerne größenreduziert im Vergleich zu den Kontrollen ([1]; range of normal cell volume, 10⁻⁴- 10⁻¹² mg HMT/ml Kulturvolumen): 25%
- dissoziiert in Formaldehyd und Ammoniumionen ([4]; pH 5): 20%
- dissoziiert in Formaldehyd und Ammoniumionen ([4]; pH 6): 6%
- Zellvolumen (µm³) ([5]; 0,1 mg HMT/ml Kulturvolumen, Zellfragmente, Mittelwert): 339,06 µm³
- Zellvolumen (µm³) ([5]; 0,2 mg HMT/ml Kulturvolumen, Zellfragmente, Mittelwert): 323,75 µm³
- Zellvolumen (µm³) ([5]; 1 x 10⁻² mg HMT/ml Kulturvolumen, Kontrolle 1470,66±390,71): 1540,82±401,32 µm³
- Zellvolumen (µm³) ([5]; 1 x 10⁻³ mg HMT/ml Kulturvolumen, Kontrolle 1470,66±390,71): 1422,27±398,09 µm³
- Zellvolumen (µm³) ([5]; 2 x 10⁻² mg HMT/ml Kulturvolumen, Kontrolle 1470,66±390,71): 1718,16±487,10 µm³
- Zellvolumen (µm³) ([5]; 2 x 10⁻³ mg HMT/ml Kulturvolumen, Kontrolle 1470,66±390,71): 1479,35±387,79 µm³
- Zellvolumen (µm³) ([5]; 2 x 10⁻¹² mg HMT/ml Kulturvolumen, Kontrolle 1470,66±390,71): 1411,23±395,92 µm³
- Zellvolumen (µm³) ([5]; 2 x 10⁻¹¹ mg HMT/ml Kulturvolumen, Kontrolle 1470,66±390,71): 1484,77±412,43 µm³
- Zellvolumen (µm³) ([5]; 2 x 10⁻⁴ mg HMT/ml Kulturvolumen, Kontrolle 1470,66±390,71): 1365,68±371,21 µm³
- Zellvolumen (µm³) ([5]; 2 x 10⁻⁵ mg HMT/ml Kulturvolumen, Kontrolle 1470,66±390,71): 1289,92±350,94 µm³
- Zellvolumen (µm³) ([5]; 2 x 10⁻⁶ mg HMT/ml Kulturvolumen, Kontrolle 1470,66±390,71): 1295,17±379,65 µm³
- Zellvolumen (µm³) ([5]; 2 x 10⁻⁷ mg HMT/ml Kulturvolumen, Kontrolle 1470,66±390,71): 1279,94±388,43 µm³
- Zellvolumen (µm³) ([5]; 2 x 10⁻⁸ mg HMT/ml Kulturvolumen, Kontrolle 1470,66±390,71): 1291,81±410,11 µm³
- Zellvolumen (µm³) ([5]; 2 x 10⁻⁹ mg HMT/ml Kulturvolumen, Kontrolle 1470,66±390,71): 1292,70±398,55 µm³
- Zellvolumen (µm³) ([5]; 5 x 10⁻² mg HMT/ml Kulturvolumen, Kontrolle 1470,66±390,71): 1736,76±438,98 µm³
- Zellvolumen ([5]; between 10⁻⁴ - 10⁻¹² mg/ml Kulturvolumen): korrespondiert das Zellvolumen mit dem Zellvolumen der Kontrollen
- Aktivitäten der reversen Transkriptase im Zellkern [6]: beeinträchtigt
